Reference: PMC6286779, “HLA-A2-Restricted Epitopes Identified from MTA1 Could Elicit Antigen-Specific Cytotoxic T Lymphocyte Response” (Journal of Immunology Research, 2018)

Columns and labels:
[1] = tested on: MDA-MB-231 (HLA-A2+, MTA1+); assay: LDH cytotoxicity assay, CTLs induced in vitro; assay type: cell-based, human; conditions: CTLs induced by peptide 10 μg/ml from donor no. 6; E/T 50 : 1; LDH release, 4 h; n = 3
Description: (§1) CTL induction in vitro was conducted according to the procedures previously described. Briefly, PBMCs from eight HLA-A^∗02^+ healthy donors were isolated using Ficoll-Paque density gradient centrifugation and resuspended in RPMI 1640 medium supplemented with 10% FBS. Then, PBMCs were stimulated three times (once a week) with the indicated peptides (10 μg/ml) or protein MTA1(1–283) (at final concentrations of 0, 1, 10, 30, and 50 μg/ml) for 21 days. Human recombinant cytokine interleukin-2 (IL-2) (50 U/ml) was added on day 3 and 1 day after each stimulation. The cytotoxic assay (lactate dehydrogenase (LDH) assay) and IFN-γ secretion enzyme-linked immunospot (ELISPOT) assay were performed on day 21.
(§2) Cytotoxic activity of induced T cells was tested based on the quantitation of LDH release using the nonradioactive cytotoxicity assay kit (Promega, USA) at the gradient E/T ratio [29, 31]. Target cells which expressed different levels of MTA1 or peptide-pulsed T2 cells were used as target cells. The anti-human HLA-A2 antibody (BB7.2) was added 30 min before adding effector cells to determine the HLA restriction. Target cells (5 × 10^3/well) were cocultured with the effector cells at 37°C for 4 h. The percentage of specific lysis of the target cells was determined using the equation: percentage of specific lysis = [(experimental release − effector spontaneous release − target spontaneous release)/(target maximum release − target spontaneous release)] × 100.

SW620 (HLA-A2+, MTA1+) = assay: LDH cytotoxicity assay, CTLs induced in vitro; assay type: cell-based, human; conditions: CTLs induced by peptide 10 μg/ml from donor no. 6; E/T 50 : 1; LDH release, 4 h; n = 3
Description: as §1, §2

MCF-7 (HLA-A2+, MTA1+) = assay: LDH cytotoxicity assay, CTLs induced in vitro; assay type: cell-based, human; conditions: peptide-induced CTLs from healthy donors, E/T 50 : 1
Description: as §1, §2

HT-29 (HLA-A2−, MTA1+) = assay: LDH cytotoxicity assay, CTLs induced in vitro; assay type: cell-based, human; conditions: peptide-induced CTLs, HLA-A2-negative control target
Description: as §1, §2

[2] = tested on: T2 cells pulsed with each peptide; assay: LDH cytotoxicity assay, CTLs induced in HLA-A2.1/Kb transgenic mice; assay type: in vivo, human; conditions: 100 μg peptide + 140 μg T helper epitope in IFA s.c. days 0, 5, 10, splenocytes restimulated 6 days, E/T 50 : 1, n = 5
Description: (§3) In vivo induction of peptide-specific CTLs was performed as previously described. Briefly, peptide (100 μg) and the IA^b-restricted HBV-core128 T helper epitope (140 μg) emulsified in incomplete Freund's adjuvant (IFA) were used to subcutaneously immunize at the base of the tail of HLA-A2.1/K^b transgenic mice three times on days 0, 5, and 10. On day 11, all mice were sacrificed through cervical dislocation. Spleen lymphocytes were isolated and restimulated once with 10 μg/ml peptide and 10 U/ml mIL-2 in vitro for an additional 6 days. LDH and IFN-γ ELISPOT assays were performed on day 6 after in vitro stimulation. […]
as §2

[3] = molecular target: T1, peptide/HLA-A*0201 complexes (Homo sapiens, UniProt P04439, D140Y/D185E/D98H/E176V/E277Q/G131W/G231S/I119V/I121R/I166T/I218V/L300P/L318F/N151K/N90K/P208A/P217A/Q86G/Q94H/R138H/R169H/T345S); assay: T2 stabilization (stability) assay; assay type: binding; conditions: T2 cells, peptide 50 μg/ml, 18 h, then brefeldin A 10 μg/ml 1 h; read at 0, 2, 4, 6 h, 37°C; flow cytometry
T1 construct: endogenous in cells; host or cells: T2 lymphoblastic cell line (TAP-deficient)
Description: For the stability assay, each of the selected peptides (50 μg/ml) was incubated with T2 cells (1 × 10^6 cells/ml) for 18 h in serum-free RPMI 1640 medium supplemented with 3 μg/ml β2-M at 37°C. Thereafter, cells were washed twice and incubated with brefeldin A (10 μg/ml, eBiosciences, USA) for 1 h. Subsequently, the cells were washed and incubated for 0, 2, 4, and 6 h at 37°C. Cells were washed twice, stained with BB7.2 for 0.5 h at 4°C. Finally, cells were collected, washed, and analyzed by flow cytometry. Dissociation complex 50 (DC50) was defined as time (t) required for the loss of 50% of the HLA-A^∗0201/peptide complexes stabilized at 0 h.

[4] = tested on: SW620 incubated with an anti-human HLA-A2 antibody; assay: LDH cytotoxicity assay, CTLs induced in vitro, HLA-A2 blocked; assay type: cell-based; conditions: peptide-induced CTLs, BB7.2 added 30 min before effectors
Description: as §1, §2

[5] = tested on: HLA-A2.1/K^b transgenic mice; assay: IFN-γ ELISPOT of CTLs induced in HLA-A2.1/Kb transgenic mice; assay type: in vivo; conditions: HLA-A2.1/Kb transgenic mice immunized with peptide; stimulators peptide-pulsed T2 cells
Description: In vivo induction of peptide-specific CTLs was performed as previously described. Briefly, peptide (100 μg) and the IA^b-restricted HBV-core128 T helper epitope (140 μg) emulsified in incomplete Freund's adjuvant (IFA) were used to subcutaneously immunize at the base of the tail of HLA-A2.1/K^b transgenic mice three times on days 0, 5, and 10. On day 11, all mice were sacrificed through cervical dislocation. Spleen lymphocytes were isolated and restimulated once with 10 μg/ml peptide and 10 U/ml mIL-2 in vitro for an additional 6 days. LDH and IFN-γ ELISPOT assays were performed on day 6 after in vitro stimulation. E/T ratios used in the LDH assay were 20 : 1, 40 : 1, and 80 : 1.
The ELISPOT assay was performed using a commercial kit (Dakewe, China) according to the procedures previously described. Briefly, T2 cells incubated with/without candidate peptide (50 μg/ml) were used as the stimulating cells, effector cells (1 × 10^5) and stimulator cells (peptide-pulsed T2 cells or T2 cells only, 1 × 10^5) were seeded into the 96-well plate precoated with an anti-human (or anti-mouse) IFN-γ antibody. After incubation at 37°C for 18 h, cells were removed, and plates were processed for analysis as instructed. The spot number was determined automatically using a computer-assisted spot analyzer (Dakewe, China).

[6] = tested on: SW620 cells (HLA-A2+, MTA1+); assay: LDH cytotoxicity assay, CTLs induced in HLA-A2.1/Kb transgenic mice; assay type: in vivo, human; conditions: HLA-A2.1/Kb transgenic mice, 100 μg peptide + 140 μg T helper epitope in IFA s.c. days 0, 5, 10; splenocytes restimulated 6 days; E/T 50 : 1; n = 5
Description: as §3
To test the effects of protein, each HLA-A2.1/K^b transgenic mouse was injected subcutaneously at the base of the tail with 100 μg MTA1(1–283) or the same volume of PBS emulsified in IFA twice on days 0 and 7. On day 14, spleen lymphocytes were harvested and stimulated by peptide pool (10 μg/ml) in vitro for another 6 days. LDH, IFN-γ ELISPOT, and IFN-γ intracellular cytokine staining assays were performed on day 6 after the in vitro stimulation. E/T ratios used in the LDH assay were 12.5 : 1, 25 : 1, and 50 : 1.
as §2

Sequence | lysis rate of MDA-MB-231 cells [1] | lysis rate of SW620 cells (SW620 (HLA-A2+, MTA1+)) | rate of MCF-7 cell lysis (MCF-7 (HLA-A2+, MTA1+)) | lysis of HT-29 cells (HT-29 (HLA-A2−, MTA1+)) | lysis rate of peptide-pulsed T2 target cells, CTLs induced in vivo [2] | DC50: time required for the loss of 50% of the HLA-A*0201/peptide complexes stabilized at 0 h [3] | lysis of SW620 cells incubated with an HLA-A2 blocking antibody [4] | IFN-γ production, ELISPOT, CTLs induced in vivo [5] | lysis rate of SW620 cells, CTLs induced in vivo [6]
TLLNETESL [Peptide P129] | 14.1% | 38.4% | 9.34% | did not lyse | 31.6% | >6 h | did not lyse | greater production of IFN-γ compared with the other peptides | 51.81%
YLIRRIEEL [Peptide P22] | 24.8% | 71.4% | 16.0% | did not lyse | 22.43% | >2 h | did not lyse | greater production of IFN-γ compared with the other peptides | 37.29%
